From PubChem BioAssay AID330 (DTP/NCI, 2004)
Values joined by “and” are separate entries in the source; they are usually repeats but may differ in a detail not shown here. Equal entries are not always repeated. Inconclusive results and toxic doses are left out.

System: P388 leukemia ip, CD2F1 mice, survival T/C
Assay: NCI In Vivo Anticancer Drug Screen. Data for tumor model P388 Leukemia (intraperitoneal) in CD2F1 (CDF1) mice
Conditions: endpoint: median survival time, higher = longer survival
Outline: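 Mice carrying the transplanted tumor received test compound or vehicle. Survival was recorded in each group, and the value is the treated-group measurement divided by that of the vehicle-treated control group.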

[1] = dose: 50.0 mg/kg/injection, schedule: Q01DX005 (ip), vehicle: saline with Tween-80
[2] = dose: 100.0 mg/kg/injection, schedule: Q01DX005 (ip), vehicle: saline with Tween-80
[3] = dose: 200.0 mg/kg/injection, schedule: Q01DX005 (ip), vehicle: saline with Tween-80
[4] = dose: 6.25 mg/kg/injection, schedule: Q01DX009 (ip), vehicle: water
[5] = dose: 12.5 mg/kg/injection, schedule: Q01DX009 (ip), vehicle: water
[6] = dose: 50.0 mg/kg/injection, schedule: Q01DX009 (ip), vehicle: saline with Tween-80
[7] = dose: 200.0 mg/kg/injection, schedule: Q01DX009 (ip), vehicle: saline with Tween-80
[8] = dose: 50.0 mg/kg/injection, schedule: Q01DX009 (ip), vehicle: Klucel (hydroxypropylcellulose) (HPC)
[9] = dose: 100.0 mg/kg/injection, schedule: Q01DX009 (ip), vehicle: Klucel (hydroxypropylcellulose) (HPC)
[10] = dose: 200.0 mg/kg/injection, schedule: Q01DX009 (ip), vehicle: Klucel (hydroxypropylcellulose) (HPC)
[11] = dose: 100.0 mg/kg/injection, schedule: Q04DX002 (ip), vehicle: saline
[12] = dose: 200.0 mg/kg/injection, schedule: Q04DX002 (ip), vehicle: saline
[13] = dose: 100.0 mg/kg/injection, schedule: Q01DX009 (ip), vehicle: saline with Tween-80
[14] = dose: 50.0 mg/kg/injection, schedule: Q01DX009 (ip), vehicle: saline
[15] = dose: 100.0 mg/kg/injection, schedule: Q01DX009 (ip), vehicle: saline
[16] = dose: 60.0 mg/kg/injection, schedule: Q01DX005 (ip), vehicle: saline with Tween-80
[17] = dose: 120.0 mg/kg/injection, schedule: Q01DX005 (ip), vehicle: saline with Tween-80
[18] = dose: 50.0 mg/kg/injection, schedule: Q01DX005 (ip), vehicle: Klucel (hydroxypropylcellulose) (HPC)
[19] = dose: 100.0 mg/kg/injection, schedule: Q01DX005 (ip), vehicle: Klucel (hydroxypropylcellulose) (HPC)

FC(F)(c1nc2ccccc2[nH]1)C(F)(F)C(F)(F)c1nc2ccccc2[nH]1
T/C [1]: 95 % of control | T/C [2]: 89 % of control | T/C [3]: 88 % of control

OCC1CC2C=CC1O2 (stereo not given)
T/C [1]: 101 % of control | T/C [2]: 114 % of control | T/C [3]: 95 % of control

[O-][n+]1ccccc1C[P+](c1ccccc1)(c1ccccc1)c1ccccc1
T/C [4]: 99 % of control | T/C [5]: 100 % of control and 86 % of control | T/C (dose: 25.0 mg/kg/injection, schedule: Q01DX009 (ip), vehicle: water): 95 % of control | T/C (dose: 50.0 mg/kg/injection, schedule: Q01DX009 (ip), vehicle: water): 100 % of control and 98 % of control

O=C1OCC/C1=C1/Nc2ccccc2NC1=O
T/C [6]: 89 % of control | T/C [7]: 91 % of control

c1ccc(-c2nc[nH]c2-c2ccccc2)cc1
T/C [8]: 96 % of control | T/C [9]: 97 % of control | T/C (dose: 100.0 mg/kg/injection, schedule: Q01DX009 (ip), vehicle: suspension in saline): 101 % of control | T/C [10]: 98 % of control | T/C (dose: 200.0 mg/kg/injection, schedule: Q01DX009 (ip), vehicle: suspension in saline): 96 % of control | T/C (dose: 400.0 mg/kg/injection, schedule: Q01DX009 (ip), vehicle: Klucel (hydroxypropylcellulose) (HPC)): 97 % of control

CC(C)NCc1ccccc1Sc1ccccc1
T/C (dose: 25.0 mg/kg/injection, schedule: Q01DX001 (ip), vehicle: saline with Tween-80): 96 % of control | T/C (dose: 50.0 mg/kg/injection, schedule: Q01DX001 (ip), vehicle: saline with Tween-80): 104 % of control | T/C (dose: 100.0 mg/kg/injection, schedule: Q01DX001 (ip), vehicle: saline with Tween-80): 95 % of control

COC(=O)CC1(O)C=C(C)C(=O)c2ccccc21 (stereo not given)
T/C (dose: 25.0 mg/kg/injection, schedule: Q01DX005 (ip), vehicle: saline with Tween-80): 100 % of control | T/C [1]: 101 % of control | T/C [2]: 100 % of control | T/C [3]: 100 % of control | T/C (dose: 400.0 mg/kg/injection, schedule: Q01DX005 (ip), vehicle: saline with Tween-80): 101 % of control

CSc1nc2ccc(N=Cc3ccccc3O)cc2s1
T/C [8]: 91 % of control | T/C [9]: 89 % of control | T/C [10]: 100 % of control

Nc1ccc(C2=Cc3ccc(N)cc3S2(=O)=O)cc1
T/C [11]: 99 % of control | T/C [12]: 99 % of control | T/C (dose: 400.0 mg/kg/injection, schedule: Q04DX002 (ip), vehicle: saline): 101 % of control

Nc1ccccc1N
T/C (dose: 25.0 mg/kg/injection, schedule: Q01DX009 (ip), vehicle: saline with Tween-80): 95 % of control | T/C [13]: 120 % of control | T/C (dose: 100.0 mg/kg/injection, schedule: Q04DX003 (ip), vehicle: saline sonified): 100 % of control | T/C [7]: 185 % of control

O=[N+]([O-])c1cc2c(cc1S(=O)(=O)O)C1C(C3C2C2(Cl)C(Cl)=C(Cl)C3(Cl)C2(Cl)Cl)C2(Cl)C(Cl)=C(Cl)C1(Cl)C2(Cl)Cl (stereo not given)
T/C [14]: 101 % of control | T/C [15]: 98 % of control

Clc1ccc([C@H]2N[C@@H]2c2ccccn2)cc1
T/C [16]: 94 % of control | T/C [17]: 103 % of control | T/C (dose: 240.0 mg/kg/injection, schedule: Q01DX005 (ip), vehicle: saline with Tween-80): 94 % of control

C=CC(=O)OCCN(CCCC)CCCC
T/C (dose: 50.0 mg/kg/injection, schedule: Q01DX005 (ip), vehicle: saline): 103 % of control | T/C (dose: 100.0 mg/kg/injection, schedule: Q01DX005 (ip), vehicle: saline): 95 % of control | T/C (dose: 200.0 mg/kg/injection, schedule: Q01DX005 (ip), vehicle: saline): 97 % of control

CCCCCCCCCCCCCCCC1C(N)C(=O)N(C)N1C (stereo not given)
T/C [6]: 86 % of control | T/C [13]: 95 % of control

O=C1c2ccccc2C(=O)c2c(NCCCNCCO)ccc(NCCCNCCO)c21
T/C (dose: 3.75 mg/kg/injection, schedule: Q01DX005 (ip), vehicle: other): 104 % of control | T/C [4]: 101 % of control | T/C (dose: 7.5 mg/kg/injection, schedule: Q01DX005 (ip), vehicle: other): 111 % of control | T/C (dose: 7.5 mg/kg/injection, schedule: Q01DX009 (ip), vehicle: water): 110 % of control | T/C [5]: 117 % of control | T/C (dose: 15.0 mg/kg/injection, schedule: Q01DX005 (ip), vehicle: other): 119 % of control | T/C (dose: 15.0 mg/kg/injection, schedule: Q01DX009 (ip), vehicle: water): 117 % of control | T/C (dose: 30.0 mg/kg/injection, schedule: Q01DX005 (ip), vehicle: other): 120 % of control | T/C (dose: 100.0 mg/kg/injection, schedule: Q01DX009 (ip), vehicle: other): 97 % of control | T/C (dose: 100.0 mg/kg/injection, schedule: Q01DX009 (ip), vehicle: water): 99 % of control

CCOC(=O)CCC(NC(=O)c1ccc(NCc2cnc3nc(N)nc(N)c3c2)cc1)C(=O)OCC (stereo not given)
T/C (dose: 0.25 mg/kg/injection, schedule: Q01DX005 (ip), vehicle: saline with Tween-80): 162 % of control | T/C (dose: 0.5 mg/kg/injection, schedule: Q01DX005 (ip), vehicle: saline with Tween-80): 158 % of control and 183 % of control | T/C (dose: 1.0 mg/kg/injection, schedule: Q01DX005 (ip), vehicle: saline with Tween-80): 183 % of control and 218 % of control | T/C (dose: 2.0 mg/kg/injection, schedule: Q01DX005 (ip), vehicle: saline with Tween-80): 104 % of control | T/C (dose: 125.0 micrograms/kg/injection, schedule: Q01DX005 (ip), vehicle: saline with Tween-80): 114 % of control | T/C (dose: 1000.0 micrograms/kg/injection, schedule: Q01DX005 (ip), vehicle: saline with Tween-80): 151 % of control

N=C(N)c1ccc(OCCCOc2ccc(C(=N)N)cc2)cc1
T/C (dose: 6.25 mg/kg/injection, schedule: Q01DX005 (ip), vehicle: saline): 108 % of control | T/C (dose: 12.5 mg/kg/injection, schedule: Q01DX005 (ip), vehicle: saline): 117 % of control | T/C (dose: 25.0 mg/kg/injection, schedule: Q01DX005 (ip), vehicle: saline): 115 % of control

Cc1[nH]c(C)c2c(=O)ccsc12
T/C [16]: 90 % of control | T/C [17]: 99 % of control

O=C1c2cccc3cc([N+](=O)[O-])cc(c23)C(=O)N1CCNCCNCCNCCN1C(=O)c2cccc3cc([N+](=O)[O-])cc(c23)C1=O
T/C (dose: 5.0 mg/kg/injection, schedule: Q04DX002 (ip), vehicle: saline with Tween-80): 107 % of control and 124 % of control | T/C (dose: 10.0 mg/kg/injection, schedule: Q04DX002 (ip), vehicle: saline with Tween-80): 122 % of control | T/C (dose: 80.0 mg/kg/injection, schedule: Q04DX002 (ip), vehicle: saline with Tween-80): 122 % of control

CN(C(=O)c1ccc(N)cc1)C1CCN(C2CCCCC2)C1 (stereo not given)
T/C [8]: 103 % of control | T/C [9]: 101 % of control

CC(NCCCCCCNC(C)C(=O)O)C(=O)O (stereo not given)
T/C [1]: 105 % of control | T/C [2]: 100 % of control | T/C [3]: 117 % of control

C=C1C(=O)OC2(C)C3CCC(C3)C12 (stereo not given)
T/C [14]: 96 % of control | T/C [15]: 113 % of control

NC(CCC(=O)OCc1ccccc1)C(=O)OCc1ccccc1 (stereo not given)
T/C (dose: 50.0 mg/kg/injection, schedule: Q04DX003 (ip), vehicle: saline): 100 % of control | T/C (dose: 100.0 mg/kg/injection, schedule: Q04DX003 (ip), vehicle: saline): 104 % of control | T/C (dose: 200.0 mg/kg/injection, schedule: Q04DX003 (ip), vehicle: saline): 100 % of control

Cn1cccc/c1=N\N
T/C [11]: 100 % of control | T/C [12]: 99 % of control

C#CCn1c(=O)c2cc3ccccc3nc2n(CC#C)c1=O
T/C [18]: 96 % of control | T/C [19]: 93 % of control

C/C(=N\NC(=S)N1CCN(C2CCCCCC2)CC1)c1ccccn1
T/C (dose: 1.57 mg/kg/injection, schedule: Q01DX005 (ip), vehicle: saline with Tween-80): 96 % of control | T/C (dose: 3.13 mg/kg/injection, schedule: Q01DX005 (ip), vehicle: saline with Tween-80): 100 % of control | T/C (dose: 6.25 mg/kg/injection, schedule: Q01DX005 (ip), vehicle: saline with Tween-80): 114 % of control and 120 % of control

CC1(C)CC(=O)C2=C(C1)CC1(C)CC(C)(C)CC2(OC(=O)Cc2ccccc2)C1 (stereo not given)
T/C [18]: 98 % of control | T/C [19]: 95 % of control | T/C (dose: 200.0 mg/kg/injection, schedule: Q01DX005 (ip), vehicle: Klucel (hydroxypropylcellulose) (HPC)): 92 % of control
